Source: PubChem BioAssay AID1963830 (Molecular Pharmacology Branch, DTP, NCI, 2024)
pIC50: −log10 of the molar value.

Tested on: 922993-354-T-J3-PDC complex spheroid viability
Assay: Anticancer human tumor 922993-354-T-J3-PDC patient-derived endometrial carcinoma cell line growth inhibition [POLQ]
Conditions: for pIC50: curve of first compound; for viability, T/C: stronger effect = lower value; active = viability on the fitted dose curve at most 10% of control; inactive = the rest
Method in brief: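 Complex spheroid viability model combining PDC tumour cells with endothelial (HUVEC) and MSC stromal cells. Novobiocin, ART-558 or RP6685 were tested singly and in combination with standard and investigational anticancer drugs. Each was titrated in half-log steps from near clinical Cmax, or from 10 microM where Cmax was unknown.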

[1] = second compound 0.0316 µM, first compound 0.0316 µM
[2] = second compound 0.0316 µM, first compound 0.1 µM
[3] = second compound 0.0316 µM, first compound 0.316 µM
[4] = second compound 0.0316 µM, first compound 1 µM
[5] = second compound 0.0316 µM, first compound 3.16 µM
[6] = second compound 0.0316 µM, first compound 10 µM
[7] = second compound 0.1 µM, first compound 0.0316 µM
[8] = second compound 0.1 µM, first compound 0.1 µM
[9] = second compound 0.1 µM, first compound 0.316 µM
[10] = second compound 0.1 µM, first compound 1 µM
[11] = second compound 0.1 µM, first compound 3.16 µM
[12] = second compound 0.1 µM, first compound 10 µM
[13] = second compound 0.316 µM, first compound 0.0316 µM
[14] = second compound 0.316 µM, first compound 0.1 µM
[15] = second compound 0.316 µM, first compound 0.316 µM
[16] = second compound 0.316 µM, first compound 1 µM
[17] = second compound 0.316 µM, first compound 3.16 µM
[18] = second compound 0.316 µM, first compound 10 µM
[19] = second compound 1 µM, first compound 0.0316 µM
[20] = second compound 1 µM, first compound 0.1 µM
[21] = second compound 1 µM, first compound 0.316 µM
[22] = second compound 1 µM, first compound 1 µM
[23] = second compound 1 µM, first compound 3.16 µM
[24] = second compound 1 µM, first compound 10 µM
[25] = second compound 3.16 µM, first compound 0.0316 µM
[26] = second compound 3.16 µM, first compound 0.1 µM
[27] = second compound 3.16 µM, first compound 0.316 µM
[28] = second compound 3.16 µM, first compound 1 µM
[29] = second compound 3.16 µM, first compound 3.16 µM
[30] = second compound 3.16 µM, first compound 10 µM
[31] = second compound 10 µM, first compound 0.0316 µM
[32] = second compound 10 µM, first compound 0.1 µM
[33] = second compound 10 µM, first compound 0.316 µM
[34] = second compound 10 µM, first compound 1 µM
[35] = second compound 10 µM, first compound 3.16 µM
[36] = second compound 10 µM, first compound 10 µM
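Note: spheroids exposed to the agents for one week.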
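Throughout, for viability, T/C: 100% = DMSO vehicle control wells.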

COc1ccc([C@@H](O)c2cc(-c3ncnc4cc(N5CCOCC5)ccc34)c(F)cc2Cl)nn1 + Nc1ccc(C#CCN(C(=O)Cc2ncc(C(F)(F)F)cc2C(F)(F)F)c2ccc(F)cc2)nn1
inactive: viability, T/C [1] 103% | viability, T/C [2] 103% | viability, T/C [3] 98% | viability, T/C [4] 100% | viability, T/C [5] 91.3% | viability, T/C [6] 73.8% | viability, T/C [7] 106% | viability, T/C [8] 104% | viability, T/C [9] 100% | viability, T/C [10] 97.9% | viability, T/C [11] 93.7% | viability, T/C [12] 75.5% | viability, T/C [13] 106% | viability, T/C [14] 99.2% | viability, T/C [15] 101% | viability, T/C [16] 97.4% | viability, T/C [17] 87.3% | viability, T/C [18] 74.9% | viability, T/C [19] 105% | viability, T/C [20] 102% | viability, T/C [21] 99.1% | viability, T/C [22] 93.5% | viability, T/C [23] 89.4% | viability, T/C [24] 74.9% | viability, T/C [25] 97.1% | viability, T/C [26] 97% | viability, T/C [27] 93.5% | viability, T/C [28] 92.5% | viability, T/C [29] 86.5% | viability, T/C [30] 72% | viability, T/C [31] 97.3% | viability, T/C [32] 89% | viability, T/C [33] 91.4% | viability, T/C [34] 91.9% | viability, T/C [35] 90.3% | viability, T/C [36] 68.8%
< 5.00: pIC50 (second compound 0.0316 µM) | pIC50 (second compound 0.1 µM) | pIC50 (second compound 0.316 µM) | pIC50 (second compound 1 µM) | pIC50 (second compound 3.16 µM) | pIC50 (second compound 10 µM)

CCc1cc2c(N3CCc4c(cc(Cn5ccnc5)cc4-c4cn(C)nc4C(F)(F)F)C3=O)ccnc2c(OC)n1 + Cc1cccc(N(C)C(=O)C2C(O)CCN2c2nc(C)cc(C(F)(F)F)c2C#N)c1
< 5.00: pIC50 (second compound 0.0316 µM) | pIC50 (second compound 0.1 µM) | pIC50 (second compound 0.316 µM) | pIC50 (second compound 1 µM) | pIC50 (second compound 3.16 µM) | pIC50 (second compound 10 µM)
inactive: viability, T/C [1] 105% | viability, T/C [2] 107% | viability, T/C [3] 107% | viability, T/C [4] 108% | viability, T/C [5] 110% | viability, T/C [6] 94.1% | viability, T/C [7] 107% | viability, T/C [8] 106% | viability, T/C [9] 104% | viability, T/C [10] 107% | viability, T/C [11] 105% | viability, T/C [12] 99% | viability, T/C [13] 104% | viability, T/C [14] 100% | viability, T/C [15] 107% | viability, T/C [16] 110% | viability, T/C [17] 105% | viability, T/C [18] 99.5% | viability, T/C [19] 101% | viability, T/C [20] 99.4% | viability, T/C [21] 108% | viability, T/C [22] 109% | viability, T/C [23] 102% | viability, T/C [24] 107% | viability, T/C [25] 102% | viability, T/C [26] 107% | viability, T/C [27] 106% | viability, T/C [28] 106% | viability, T/C [29] 107% | viability, T/C [30] 98.4% | viability, T/C [31] 104% | viability, T/C [32] 98.4% | viability, T/C [33] 98.8% | viability, T/C [34] 102% | viability, T/C [35] 98.5% | viability, T/C [36] 102%
